Measurements from patent US7652020B2, “Compounds for the treatment of inflammatory disorders” (Schering Corporation, priority 2004, dated 2010).

Target: T1, purified catalytic domain of recombinant human TACE (rhTACEc) (Homo sapiens, UniProt P78536, N452Q/S266A)
T1 construct: Residue 215 to 477 with two mutation (S266A and N452Q) and a 6×His tail; 6xHis (C); made in house; host or cells: baculovirus/Hi5 insect cells
Assay: TACE kinetic assay: cleavage of internally quenched peptide substrate SPDL-3, fluorescence
Assay type: biochemical
Conditions: TACE inhibitory activity, class symbols; read-out: Ki
Procedure: TACE activity is determined by a kinetic assay measuring the rate of increase in fluorescent intensity generated by TACE catalyzed cleavage of an internally quenched peptide substrate (SPDL-3). […] It is purified from the baculovirus/Hi5 cells expression system using affinity chromatography. […] MCA is (7-Methoxycoumarin-4-yl)acetyl. Dpa is N-3-(2,4-Dinitrophenyl)-L-2,3-diaminopropionyl.
A 50 μl assay mixture contains 20 mM HEPES, pH 7.3, 5 mM CaCl2, 100 μM ZnCl2, 2% DMSO, 0.04% Methylcellulose, 30 μM SPDL-3, 70 pM rhTACEc and a test compound. RhTACEc is pre-incubated with the testing compound for 90 min. at 25° C. Reaction is started by addition of the substrate. […] Rate of enzymatic reaction is shown as Units per second. Effect of a test compound is shown as % of TACE activity in the absence of the compound.

T1 sequence (P78536 215-477 S266A/N452Q): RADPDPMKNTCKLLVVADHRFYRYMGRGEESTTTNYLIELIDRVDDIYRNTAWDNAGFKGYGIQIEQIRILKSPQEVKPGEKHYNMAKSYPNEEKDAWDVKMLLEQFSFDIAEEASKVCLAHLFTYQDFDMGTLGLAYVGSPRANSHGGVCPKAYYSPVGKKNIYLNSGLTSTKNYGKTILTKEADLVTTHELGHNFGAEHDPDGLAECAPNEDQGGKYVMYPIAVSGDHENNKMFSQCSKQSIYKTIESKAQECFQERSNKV

Q: Which Ki does the source give for `N#Cc1ccccc1N1CCC2(CC1)CC2NC(=O)[C@H](O)[C@@H](O)C(=O)N1CCC[C@@H]1c1ccccc1` (some centres unmarked) [Compound 2153] here?
A: > 1000 nM

Q: `C[C@@H](NC(=O)[C@H](O)[C@@H](O)C(=O)N1CCC[C@@H]1c1csc(Nc2cccnc2)n1)c1ccc(-n2cccn2)cc1` [Compound 2259] was tested. Which Ki did it give?
A: < 20 nM

Q: For `O=C([C@H](O)[C@@H](O)c1cncc(N2CCN(c3ccccc3)CC2)n1)N1Cc2ccccc2C1` [Compound 2393], which Ki is on record?
A: > 1000 nM

Q: Which Ki does the source give for `C[C@@H](NC(=O)[C@H](O)[C@@H](O)C(=O)N1CCC[C@@H]1c1csc(N)n1)c1ccc(-n2cccn2)cc1` [Compound 2255] here?
A: < 20 nM

Q: Which Ki does the source give for `O=C(NC[C@H]1CC[C@H](n2c(C(F)(F)F)nc3ccccc32)CC1)[C@H](O)[C@@H](O)C(=O)N1CCC[C@@H]1c1ccccc1` [Compound 2351] here?
A: < 20 nM

Q: For `C[C@@H](NC(=O)[C@H](O)[C@@H](O)C(=O)N1C2CCC1c1cc(F)c(F)cc12)c1ccc(-n2cccn2)cc1` [Compound 2096], which Ki is on record?
A: 100 to 1000 nM

Q: `CCOc1cc(F)ccc1-c1ccc(CNC(=O)[C@H](O)[C@@H](O)C(=O)N2CCCC2)nc1` [Compound 2349] was tested. Which Ki did it give?
A: < 20 nM

Q: With `C[C@@H](NC(=O)[C@H](O)[C@@H](O)C(=O)N1CC(C)(C)CC1(C)C)c1ccc(-n2cccn2)cc1` [Compound 2254] as the compound, how does the Ki read?
A: 100 to 1000 nM

Q: Which Ki does the source give for `C[C@@H](NC(=O)[C@H](O)[C@@H](O)C(=O)N1CCNCC1)c1ccc(-n2cccn2)cc1` [Compound 2423] here?
A: 100 to 1000 nM

Q: How did the Ki turn out when `C[C@@H](NC(=O)[C@H](O)[C@@H](O)C(=O)N1CCC[C@@H]1c1ccn(-c2ccccc2)n1)c1ccc(-n2cccn2)cc1` [Compound 2597] was run?
A: < 20 nM

Q: How did the Ki turn out when `Cc1noc([C@H]2c3ccccc3CN2C(=O)[C@H](O)[C@@H](O)C(=O)N[C@H](C)c2ccc(-n3cccn3)cc2)n1` (stereo in doubt) [Compound 2528] was run?
A: < 20 nM

Q: For `CNc1nc([C@H]2c3ccccc3CCN2C(=O)[C@H](O)[C@@H](O)C(=O)N[C@H](C)c2ccc(-n3cccn3)cc2)cs1` [Compound 2586], which Ki is on record?
A: < 20 nM

Q: For `CC#CCOc1cc([C@@H](C)NC(=O)[C@H](O)[C@@H](O)C(=O)N2CC=CC2c2cccc(Cl)c2)ccc1-n1cccn1` (some centres unmarked) [Compound 2572], which Ki is on record?
A: < 20 nM

Q: `O=C(NCc1ccc(-c2ccc(F)cc2OCCC2CCCCC2)cc1)[C@H](O)[C@@H](O)C(=O)N1CCCC1` [Compound 2342] was tested. Which Ki did it give?
A: 100 to 1000 nM

Q: For `C[C@@H](NC(=O)[C@](C)(O)[C@@H](O)C(=O)N1CCc2ncccc2C1)c1ccc(-n2cccn2)cc1` [Compound 2078], which Ki is on record?
A: 100 to 1000 nM

Q: For `Cc1cccc2c1CN(C(=O)[C@H](O)[C@@](C)(O)C(=O)N[C@H](C)c1ccc(-n3cccn3)cc1)C2` [Compound 2446], which Ki is on record?
A: 20 to 100 nM

Q: For `CNc1nc([C@H]2CC(F)(F)CN2C(=O)[C@H](O)[C@@H](O)C(=O)N[C@H](C)c2ccc(-n3cccn3)cc2)cs1` [Compound 2567], which Ki is on record?
A: < 20 nM

Q: For `C[C@@H](NC(=O)[C@H](O)[C@@H](O)C(=O)N1C[C@H](O)C[C@H]1c1cccc(Cl)c1)c1ccc(-n2cccn2)cc1` [Compound 2265], which Ki is on record?
A: < 20 nM

Q: With `CNc1nc([C@H]2CCCN2C(=O)[C@H](O)[C@@H](O)C(=O)NCC2CCN(c3ccc(F)cc3C#N)CC2)cs1` [Compound 2253] as the compound, how does the Ki read?
A: < 20 nM

Q: With `CNc1ncc2c(n1)CN(C(=O)[C@H](O)[C@@H](O)C(=O)N[C@H](C)c1ccc(-n3cccn3)cc1)C2C` (some centres unmarked) [Compound 2054] as the compound, how does the Ki read?
A: < 20 nM

Q: For `CNc1ncc2c(n1)C(C)N(C(=O)[C@H](O)[C@@H](O)C(=O)N[C@H](C)c1ccc(-n3cccn3)cc1)C2` (some centres unmarked) [Compound 2053], which Ki is on record?
A: 20 to 100 nM

Q: Which Ki does the source give for `O=C(NCc1ccc(-c2ccccc2OCCC2CCCCC2)cc1)[C@H](O)[C@@H](O)C(=O)N1CCCC1` [Compound 2338] here?
A: < 20 nM

Q: With `CC(C)CN(C(=O)[C@H](O)[C@@H](O)C(=O)N[C@H](C)c1ccc(-n2cccn2)cc1)C(C)c1cccc(Cl)c1` (some centres unmarked) [Compound 2482] as the compound, how does the Ki read?
A: > 1000 nM

Q: How did the Ki turn out when `CC1(C)c2ccccc2CN1C(=O)[C@H](O)[C@@H](O)C(=O)NCC1CCN(c2ccccc2C#N)CC1` [Compound 2233] was run?
A: < 20 nM

Q: For `COc1cc([C@@H](C)NC(=O)[C@](C)(O)[C@@H](O)C(=O)N2Cc3cccnc3C2)ccc1Br` [Compound 2356], which Ki is on record?
A: > 1000 nM

Q: `CC(C)Nc1nc([C@H]2CCCN2C(=O)[C@H](O)[C@@H](O)C(=O)N[C@H](C)c2ccc(-n3cccn3)cc2)cs1` [Compound 2257] was tested. Which Ki did it give?
A: < 20 nM

Q: With `C[C@@H](NC(=O)[C@H](O)[C@@H](O)C(=O)N1CCc2cn[nH]c2C1)c1ccc(-n2cccn2)cc1` [Compound 2076] as the compound, how does the Ki read?
A: 20 to 100 nM

Q: For `C[C@@H](NC(=O)[C@](C)(O)[C@@H](O)C(=O)N1Cc2cccnc2C1)c1ccc(-n2cccc2C#N)cc1` [Compound 2354], which Ki is on record?
A: 20 to 100 nM

Q: Which Ki does the source give for `CC(C)Nc1nc([C@H]2c3ccc(Cl)cc3CCN2C(=O)[C@H](O)[C@@H](O)C(=O)N[C@H](C)c2ccc(-n3cccn3)cc2)cs1` [Compound 2589] here?
A: < 20 nM

Q: For `C[C@@H](NC(=O)[C@H](O)[C@@H](O)C(=O)N1CCN2CCC[C@H]2C1)c1ccc(-n2cccn2)cc1` [Compound 2420], which Ki is on record?
A: 100 to 1000 nM

Q: `C[C@@H](NC(=O)[C@H](O)[C@@H](O)C(=O)N1CCCCC1c1cccc(Cl)c1)c1ccc(-n2cccn2)cc1` (some centres unmarked) [Compound 2415] was tested. Which Ki did it give?
A: 20 to 100 nM

Q: Which Ki does the source give for `CC(c1cccc(Cl)c1)N(CC1CC1)C(=O)[C@H](O)[C@@H](O)C(=O)N[C@H](C)c1ccc(-n2cccn2)cc1` (some centres unmarked) [Compound 2485] here?
A: > 1000 nM

Q: With `CCNc1nc([C@H]2c3ccccc3CN2C(=O)[C@H](O)[C@@H](O)C(=O)N[C@H](C)c2ccc(-n3cccn3)cc2)cs1` [Compound 2594] as the compound, how does the Ki read?
A: < 20 nM

Q: Which Ki does the source give for `N#Cc1ccccc1N1CCC2(CC1)CC2NC(=O)[C@H](O)[C@@H](O)C(=O)N1CCC[C@@H]1c1ccccc1` (some centres unmarked) [Compound 2152] here?
A: > 1000 nM

Q: Which Ki does the source give for `O=C([C@H](O)[C@@H](O)c1cncc(-c2ccc(-c3ccccc3)cc2)n1)N1Cc2ccccc2C1` [Compound 2403] here?
A: > 1000 nM

Q: `C[C@@H](NC(=O)[C@H](O)[C@@H](O)C(=O)N1Cc2cccnc2C1)c1cccc(O)c1` [Compound 2307] was tested. Which Ki did it give?
A: > 1000 nM

Q: With `C[C@@H](NC(=O)[C@H](O)[C@@H](O)C(=O)N1Cc2ccc[n+]([O-])c2C1)c1ccc(-n2cccn2)cc1` [Compound 2030] as the compound, how does the Ki read?
A: 20 to 100 nM

Q: Which Ki does the source give for `C[C@@H](NC(=O)[C@](C)(O)[C@@H](O)C(=O)N1Cc2cncnc2C1(C)C)c1ccc(-n2cccn2)cc1` [Compound 2047] here?
A: 100 to 1000 nM

Q: With `O=C(NCc1ccc(-c2ccccc2OCCN2CCOCC2)cc1)[C@H](O)[C@@H](O)C(=O)N1CCCC1` [Compound 2343] as the compound, how does the Ki read?
A: > 1000 nM

Q: With `C[C@@H](NC(=O)[C@H](O)[C@@H](O)C(=O)N1Cc2cccnc2C1)c1ccc(-n2cccn2)cc1` [Compound 2032] as the compound, how does the Ki read?
A: < 20 nM

Q: Which Ki does the source give for `N#Cc1cc(F)ccc1N1CCC(CNC(=O)[C@H](O)[C@@H](O)C(=O)N2Cc3ccncc3C2)CC1` [Compound 2007] here?
A: < 20 nM

Q: How did the Ki turn out when `C[C@@H](NC(=O)[C@H](O)[C@@H](O)C(=O)N1CCCN1c1cccc(Cl)c1)c1ccc(-n2cccn2)cc1` [Compound 2495] was run?
A: 100 to 1000 nM

Q: Which Ki does the source give for `N#Cc1cc(F)ccc1N1CCC(CNC(=O)[C@H](N)[C@@H](O)C(=O)N2CCCC2)CC1` [Compound 2460] here?
A: > 1000 nM

Q: For `C[C@H]1CN(c2ccccc2C#N)CCC1CNC(=O)[C@H](O)[C@@H](O)C(=O)N1CCC[C@@H]1c1ccccc1` (some centres unmarked) [Compound 2145], which Ki is on record?
A: 100 to 1000 nM

Q: Which Ki does the source give for `C[C@@H](NC(=O)[C@H](O)[C@@H](O)C(=O)N1C2CCC1CC2)c1ccc(-n2cccn2)cc1` [Compound 2095] here?
A: 100 to 1000 nM

Q: With `Cc1cnc([C@H](O)[C@@H](O)C(=O)NCC2CCN(c3ccc(F)cc3C#N)CC2)n1C` [Compound 2400] as the compound, how does the Ki read?
A: 100 to 1000 nM

Same assay, conditions: TACE, representative compounds, numeric values; read-out: Ki

Q: For `CCNc1nc([C@@H]2c3ccccc3CN2C(=O)[C@H](O)[C@@H](O)C(=O)N[C@H](C)c2ccc(-n3cccn3)cc2)cs1` [drawing 1307], which Ki is on record?
A: 0.89 nM

Q: `CNc1nc([C@H]2C[C@H]3C[C@H]3N2C(=O)[C@H](O)[C@@H](O)C(=O)N[C@H](C)c2ccc(-n3cccn3)cc2)cs1` [drawing 1312] was tested. Which Ki did it give?
A: 1.4 nM

Q: With `C[C@@H](NC(=O)[C@H](O)[C@@H](O)C(=O)N1CCc2ccccc2[C@@H]1c1csc(N)n1)c1ccc(-n2cccn2)cc1` [drawing 1309] as the compound, how does the Ki read?
A: 1.1 nM

Q: With `CC#CCOc1cc([C@@H](C)NC(=O)[C@H](O)[C@@H](O)C(=O)N2Cc3cccnc3C2)ccc1-n1cccn1` [drawing 1292] as the compound, how does the Ki read?
A: 0.25 nM

Q: How did the Ki turn out when `CCNc1nc(C2c3ccccc3CN2C(=O)[C@H](O)[C@@H](O)C(=O)N[C@H](C)c2ccc(-n3cccn3)cc2)cs1` (some centres unmarked) was run?
A: 0.16 nM

Q: How did the Ki turn out when `CCNc1nc(C2c3ccccc3CCN2C(=O)[C@H](O)[C@@H](O)C(=O)N[C@H](C)c2ccc(-n3cccn3)cc2)cs1` (some centres unmarked) was run?
A: 0.3 nM

Q: For `O=C(NCc1ccn(Cc2ccccc2Cl)n1)[C@H](O)[C@@H](O)C(=O)N1CCC[C@@H]1c1cccc(Cl)c1`, which Ki is on record?
A: 2.7 nM

Q: Which Ki does the source give for `CNc1nc([C@H]2c3ccccc3CCN2C(=O)[C@H](O)[C@@H](O)C(=O)N[C@H](C)c2ccc(-n3cccn3)cc2)cs1` [drawing 1310] here?
A: 1.4 nM

Q: How did the Ki turn out when `C[C@@H](NC(=O)[C@H](O)[C@@H](O)C(=O)N1CCC[C@@H]1c1ccn(-c2ccccc2)n1)c1ccc(-n2cccn2)cc1` [drawing 1318] was run?
A: 2.3 nM

Q: Which Ki does the source give for `C[C@@H](NC(=O)[C@H](O)[C@@H](O)C(=O)N1CC=C[C@@H]1c1cccc(Cl)c1)c1ccc(-n2cccn2)cc1` [drawing 1295] here?
A: 0.49 nM

Q: How did the Ki turn out when `Cc1nc2ccccc2n1Cc1csc(CNC(=O)[C@H](O)[C@@H](O)C(=O)N2CCCC2c2cccc(N(C)C)c2)n1` (some centres unmarked) was run?
A: 1 nM

Q: With `CCOC(=O)c1ccccc1-c1ccc(CNC(=O)[C@H](O)[C@@H](O)C(=O)N2CCC[C@@H]2c2ccccc2)cc1` as the compound, how does the Ki read?
A: 3.6 nM

Q: With `CC#CCOc1cc([C@@H](C)NC(=O)[C@H](O)[C@@H](O)C(=O)N2CCC[C@@H]2c2cccc(Cl)c2)ccc1-n1cccn1` [drawing 1305] as the compound, how does the Ki read?
A: 0.85 nM
